Key:
Experiment in all cases: relative viability (nuclei count vs DMSO), 5 days (fraction); higher = more cells survive
[1] = compound: COC1=CC(c2cc3ccccc3[nH]2)=N/C1=C\c1[nH]c(C)cc1C [Obatoclax]
Procedure, shortened: (§1)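 In 1536-well plates, lung cancer cell lines rested overnight at 37 °C before five library-drug doses (not always all listed), √10 apart, were pinned onto vehicle-anchored plates. Nuclei were counted with MetaXpress from 4× Hoechst images taken after 5 days without medium change. Viability compares treated-well with vehicle-well nuclei as a median over plates, and plates needed control CV below 25% plus at least one doubling to pass.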

[2] = compound: CC(C)C[C@H](NC(=O)[C@H](Cc1ccccc1)NC(=O)c1cnccn1)B(O)O [Bortezomib]
Procedure, shortened: as §1

[3] = compound: CC1=CC(=NN1)NC2=CC(=NC(=N2)/C=C/C3=CC=CC=C3)N4CCN(CC4)C
Procedure, shortened: as §1

| Cell Line | relative viability ([1]; 0.01 µM) | relative viability ([1]; 0.03162 µM) | relative viability ([1]; 0.1 µM) | relative viability ([1]; 0.3162 µM) | relative viability ([1]; 1 µM) | relative viability ([2]; 0.0002 µM) | relative viability ([2]; 0.000632 µM) | relative viability ([2]; 0.002 µM) | relative viability ([2]; 0.002 µM, anchor plate) | relative viability ([2]; 0.006325 µM) | relative viability ([2]; 0.02 µM) | relative viability ([3]; 0.08 µM) | relative viability ([3]; 0.253 µM) | relative viability ([3]; 0.8 µM) | relative viability ([3]; 2.53 µM) | relative viability ([3]; 8 µM) |
| --- | --- | --- | --- | --- | --- | --- | --- | --- | --- | --- | --- | --- | --- | --- | --- | --- |
| NCI-H1355 | 1.03 | 0.913 | 0.918 | 0.96 | 0.947 | 0.911 | 0.909 | 1.08 | 1.23 | 0.668 | 0.152 | 0.96 | 0.965 | 0.955 | 0.647 | 0.159 |
| NCI-H1395 | 1 | 0.846 | 0.647 | 0.838 | 0.68 | 0.949 | 0.866 | 0.807 |  | 0.332 | 0.293 | 0.916 | 1.04 | 0.882 | 0.431 | 0.279 |
| NCI-H1437 | 0.942 | 0.93 | 0.951 | 0.932 | 0.816 | 0.928 | 1 | 1 | 0.542 | 0.272 | 0.173 | 1.02 | 1.06 | 1.03 | 0.757 | 0.346 |
| NCI-H1563 | 0.989 | 0.979 | 1.08 | 0.956 | 0.895 | 0.971 | 1 | 0.826 | 0.858 | 0.564 | 0.442 | 1.03 | 1.01 | 0.999 | 0.752 | 0.509 |
| NCI-H1623 | 0.98 | 0.978 | 1.24 | 1.04 | 0.956 | 0.955 | 1.01 | 0.766 |  | 0.325 | 0.273 | 0.956 | 1.13 | 1.01 | 0.843 | 0.542 |
| NCI-H1648 | 1.02 | 0.85 | 1.64 | 0.718 | 0.815 | 0.771 | 0.769 | 0.529 |  | 0.622 | 0.312 | 0.972 | 1.04 | 0.983 | 0.655 | 0.484 |
| NCI-H1650 | 0.938 | 0.981 | 0.879 | 0.646 | 0.34 | 0.751 | 0.805 | 0.2 | 0.206 | 0.161 | 0.167 | 0.86 | 1.05 | 0.972 | 0.185 | 0.101 |
| NCI-H1651 | 0.954 | 0.957 | 1.07 | 0.847 | 0.754 | 0.992 | 0.969 | 0.727 | 0.943 | 0.173 | 0.121 | 1.03 | 0.992 | 0.939 | 0.712 | 0.288 |
| NCI-H1666 | 0.995 | 1.03 | 1.08 | 0.856 | 0.517 | 1.01 | 1.04 | 0.963 | 0.855 | 0.493 | 0.317 | 0.973 | 0.894 | 1.09 | 0.847 | 0.594 |
| NCI-H1703 | 0.955 | 0.846 | 0.858 | 0.72 | 0.542 | 1.15 | 0.757 | 0.356 | 0.338 | 0.132 | 0.119 | 0.825 | 0.912 | 0.575 | 0.19 | 0.135 |
| NCI-H1734 | 1.01 | 0.934 | 0.812 | 0.821 | 0.365 | 0.929 | 1.01 | 0.944 | 0.945 | 0.15 | 0.119 | 0.939 | 0.913 | 0.799 | 0.328 | 0.155 |
| NCI-H1755 | 0.981 | 0.975 | 0.884 | 0.994 | 0.964 | 1.01 | 0.96 | 1.02 | 0.963 | 0.378 | 0.224 | 1.03 | 1.05 | 1.02 | 0.722 | 0.443 |
| NCI-H1792 | 0.985 | 0.795 |  | 0.92 | 0.7 | 0.754 | 0.838 | 0.904 | 0.956 | 0.602 | 0.277 | 0.957 | 0.934 | 0.813 | 0.338 | 0.0683 |
| NCI-H1793 | 0.949 | 0.795 | 0.859 | 0.929 | 0.986 | 0.843 | 0.705 | 0.997 |  | 0.688 | 0.208 | 0.894 | 0.979 | 0.858 | 0.179 | 0.106 |
| NCI-H1915 | 0.973 | 0.949 | 0.898 | 0.999 | 0.941 | 0.948 | 1 | 1.09 | 0.96 | 0.91 | 0.0999 | 1 | 0.96 | 0.96 | 0.705 | 0.22 |
| NCI-H1944 | 1.04 | 0.883 | 1.01 | 1.01 | 1.02 | 0.926 | 0.94 | 0.917 |  | 0.854 | 0.283 | 0.987 | 0.98 | 0.953 | 0.657 | 0.465 |
| NCI-H1975 | 1.02 | 0.865 |  | 0.977 | 0.717 | 0.902 | 0.858 | 0.239 | 0.395 | 0.153 | 0.158 | 0.954 | 0.956 | 0.984 | 0.458 | 0.152 |
| NCI-H1993 | 0.92 | 0.865 | 1.07 | 1.03 | 0.896 | 0.903 | 0.935 | 1.01 | 1.19 | 0.493 | 0.502 | 0.91 | 0.882 | 1.27 | 0.571 | 0.423 |
| NCI-H2009 | 0.958 | 1.02 | 0.85 | 0.626 | 0.301 | 1.01 | 0.977 | 1.07 | 0.971 | 0.0869 | 0.0749 | 0.995 | 0.95 | 0.997 | 0.646 | 0.243 |

| Cell Line | relative viability ([1]; 0.01 µM) | relative viability ([1]; 0.03162 µM) | relative viability ([1]; 0.1 µM) | relative viability ([1]; 0.3162 µM) | relative viability ([1]; 1 µM) | relative viability ([2]; 0.0002 µM) | relative viability ([2]; 0.000632 µM) | relative viability ([2]; 0.002 µM) | relative viability ([2]; 0.002 µM, anchor plate) | relative viability ([2]; 0.006325 µM) | relative viability ([2]; 0.02 µM) | relative viability ([3]; 0.08 µM) | relative viability ([3]; 0.253 µM) | relative viability ([3]; 0.8 µM) | relative viability ([3]; 2.53 µM) | relative viability ([3]; 8 µM) |
| --- | --- | --- | --- | --- | --- | --- | --- | --- | --- | --- | --- | --- | --- | --- | --- | --- |
| NCI-H2023 | 0.928 | 0.969 | 0.946 | 0.774 | 0.229 | 1.02 | 0.9 | 1 | 1.01 | 0.139 | 0.0632 | 1.01 | 1.02 | 0.859 | 0.108 | 0.0691 |
| NCI-H2085 | 0.962 | 0.975 | 0.9 | 0.943 | 0.56 | 0.979 | 0.978 | 0.993 | 1.07 | 0.617 | 0.23 | 1.04 | 1.05 | 0.95 | 0.695 | 0.323 |
| NCI-H2087 | 1.01 | 1.14 | 0.8 | 0.876 | 0.298 | 0.9 | 1.08 | 0.726 | 0.79 | 0.0629 | 0.0618 | 0.959 | 0.761 | 1.09 | 0.277 | 0.13 |
| NCI-H2126 | 1.03 | 0.959 | 0.931 | 0.989 | 0.918 | 0.968 | 1.02 | 1.03 | 1.1 | 0.924 | 0.749 | 0.993 | 1.04 | 0.961 | 0.875 | 0.41 |
| NCI-H2170 | 0.942 | 0.979 | 1.01 | 0.961 | 0.977 | 0.96 | 0.824 | 1.07 |  | 0.815 | 0.177 | 0.971 | 1.04 | 0.868 | 0.77 | 0.266 |
| NCI-H2228 | 0.951 | 0.922 | 1.01 | 0.791 | 0.595 | 0.929 | 0.974 | 0.638 | 1.06 | 0.103 | 0.123 | 0.846 | 1.18 | 0.782 | 0.179 | 0.0666 |
| NCI-H2342 | 1.02 | 1.08 | 1.06 | 0.857 | 0.954 | 1.1 | 0.948 | 1.02 |  | 1.03 | 0.748 | 0.913 | 0.938 | 1.1 | 0.916 | 0.366 |
| NCI-H2347 | 0.999 | 0.946 | 0.843 | 0.946 | 0.926 | 1 | 0.936 | 1.03 | 1.08 | 0.615 | 0.339 | 0.966 | 1.11 | 1.1 | 0.891 | 0.525 |
| NCI-H2405 | 1.07 | 0.997 |  | 1.01 | 1.07 | 0.96 | 0.907 | 0.988 | 0.939 | 0.293 | 0.18 | 0.979 | 0.889 | 1.06 | 0.458 | 0.201 |
| NCI-H3122 | 0.985 | 0.931 | 0.927 | 0.984 | 1.01 | 1 | 0.957 | 1.07 | 1 | 0.825 | 0.149 | 1.01 | 0.857 | 0.982 | 0.956 | 0.308 |
| PC-3 [JPC-3] | 1.02 | 1.01 | 1.01 | 0.985 | 1.02 | 0.905 | 0.998 | 1.04 | 0.82 | 0.358 | 0.231 | 1.03 | 1.07 | 1.09 | 1.04 | 0.726 |
| PC-14 | 0.943 | 1.02 | 0.787 | 0.796 | 0.313 | 0.957 | 0.939 | 0.942 | 0.871 | 0.188 | 0.0669 | 1 | 1.07 | 0.968 | 0.427 | 0.104 |
| RERF-LC-KJ | 0.98 | 1.03 | 0.989 | 0.924 | 0.715 | 0.995 | 0.949 | 1.02 | 1.11 | 0.366 | 0.239 | 0.979 | 0.964 | 0.932 | 0.555 | 0.279 |
| SK-LU-1 | 1.03 | 1.04 | 0.797 | 0.808 | 0.616 | 1.02 | 0.969 | 0.778 | 1.22 | 0.212 | 0.162 | 1.05 | 1.09 | 0.962 | 0.455 | 0.143 |
| SK-MES-1 | 0.961 | 1 | 0.947 | 0.721 | 0.414 | 0.98 | 0.959 | 1.05 |  | 0.319 | 0.185 | 0.998 | 1.09 | 0.941 | 0.475 | 0.162 |
| SW 900 | 0.887 | 0.871 | 0.748 | 0.703 | 0.365 | 0.84 | 0.932 | 0.207 |  | 0.154 | 0.17 | 0.665 | 0.844 | 0.856 | 0.459 | 0.262 |
| SW 1573 | 1.07 | 0.957 | 0.966 | 0.709 | 0.257 | 0.963 | 0.981 | 0.947 | 1.02 | 0.11 | 0.0607 | 0.935 | 0.952 | 0.826 | 0.299 | 0.0971 |
| UMC-11 | 1.02 | 0.962 | 0.843 | 0.921 | 0.554 | 0.896 | 0.927 | 0.946 | 0.757 | 0.668 | 0.185 | 0.928 | 0.904 | 0.693 | 0.187 | 0.141 |

Reference: the supplement of paper PMC10307832
